The source of these data is patent publication US12649723B2, “Carbonohydrazonoyl dicyanide compounds comprising 2 or more aryl or heteroaryl connected via linker and use thereof” (KOREA INSTITUTE OF SCIENCE AND TECHNOLOGY, priority 2020, dated 2026).

For one series, the target named is T1, tau protein (Homo sapiens, UniProt P10636).
T1 construct: fused on or other part: Split fluorescent-protein halves for BiFC are fused to tau; In the published tau-BiFC line these are Venus VN173 and VC155
Briefly: Tau-BiFC cell model: inhibition of tau protein aggregation. The format is cell-based. To be noted: for remaining activity at 10 µM: compound 10 μM, BiFC fluorescence, read-out: Response (% @10 μM); for IC50: Tau BiFC in cells, with Forskolin 30 μM, 48 hours. As for the experimental part: (§1) In order to select novel tau protein aggregation-inhibiting substances, tau-BiFC cell model, in which formation of tau oligomers in living cells is easily observed, was used. Tau-BiFC cells were aliquoted into a 384-well plate. On the next day, the cells were treated with each of the compounds prepared according to Examples 1 to 175 at concentrations of 1 μM, 3 μM, and 10 μM, together with Forskolin (at a treatment concentration of 30 μM), which is a compound inducing tau protein aggregation by activating tau […] PKA. After 48 hours, nuclei in the cells were stained using Hoechst (at a treatment concentration of 2 μg/mL), and BiFC fluorescence intensity was automatically measured using Operetta (PerkinElmer) to count stained nuclei in each well out of the entire well plate. The group treated only with Forskolin, which induces tau protein aggregation, was set to a reference point of a 100% tau protein-aggregated state, and the effects of the compounds were confirmed using the equation “BiFC fluorescence intensity due to compound synthesized according to embodiment of present invention/(fluorescence intensity of control group treated only with Forskolin inducing tau protein aggregation−fluorescence intensity of untreated control group)×100”. Furthermore, the degree of cytotoxicity induced by the newly synthesized compound was also measured based on the 100% cell viability of the group treated only with Forskolin as a reference, and the cytotoxicity value of each compound was calculated using the equation “(number of stained nuclei in group treated with compound/number of stained nuclei in group treated with Forskolin)×100”. Based on the treatment results, substances inhibiting intracellular tau protein aggregation were selected from a series of candidate groups showing a tau protein aggregation inhibition rate of 70% or more and cell viability of 100% at a compound treatment concentration of 10 μM or more.
(§2) In order to evaluate dose-dependent tau protein aggregation inhibition effects of the compounds selected according to Experimental Example 1 on tau protein aggregation, tau-BiFC cells were treated with the selected compounds at concentrations of 0.03 μM, […], 0.3 μM, 1 μM, 3 μM, 10 μM, and 30 μM, respectively, together with Forskolin (at a treatment concentration of 30 μM), which is a tau protein aggregation inducing substance. After 48 hours, tau protein aggregation reaction and degrees of cytotoxicity were analyzed by observing images of the cells. IC50 and toxicity of the compounds were analyzed by way of nonlinear regression analysis of prism software (Graph Pad).

The test system of another series is Tau-BiFC cells. In words: Cell viability (cytotoxicity) in tau-BiFC cells, count of stained nuclei. The format is cell-based. As to conditions: Forskolin-only group = 100% cell viability; for Cell viability (% @10 μM): compound 10 μM. As for the experimental part:
as §1, §2

[1] abbreviates: 48 h, Forskolin-only group = 100% tau protein-aggregated state.

Broadly, the IC50 is the point on the concentration scale where inhibition reaches its midpoint. Read a high IC50 as weaker potency.

T1 sequence (P10636 2-441 isoform P10636-8 limits assumed): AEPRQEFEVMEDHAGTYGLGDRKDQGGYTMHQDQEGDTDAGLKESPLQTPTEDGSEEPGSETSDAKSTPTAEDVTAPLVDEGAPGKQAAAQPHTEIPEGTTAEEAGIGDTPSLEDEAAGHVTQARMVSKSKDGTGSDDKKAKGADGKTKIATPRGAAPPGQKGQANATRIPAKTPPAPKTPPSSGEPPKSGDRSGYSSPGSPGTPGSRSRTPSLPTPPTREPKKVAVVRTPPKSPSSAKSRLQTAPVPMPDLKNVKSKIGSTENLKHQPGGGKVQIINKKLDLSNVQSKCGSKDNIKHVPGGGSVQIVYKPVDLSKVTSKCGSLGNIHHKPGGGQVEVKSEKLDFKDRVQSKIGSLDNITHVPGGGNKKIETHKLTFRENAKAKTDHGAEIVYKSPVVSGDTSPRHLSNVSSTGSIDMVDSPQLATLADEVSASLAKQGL

For the molecule `N#CC(C#N)=NNc1ccc(OCc2ccc(C(F)(F)F)cc2)c(C(F)(F)F)c1` [Compound 98, (3-(trifluoromethyl)-4-(4-(trifluoromethyl)benzyloxy)phenyl)carbonohydrazonoyl dicyanide], the remaining activity at 10 µM at tau protein (setting [1]) stood at 0%. On tau protein, the IC50 came out at 250 nM. Also, the “Cell viability (% @10 μM)” value with Tau-BiFC cells came out at 26.9%.
For `N#CC(C#N)=NNc1ccc(Oc2cnccn2)cc1` [Compound 84, (4-(pyrazin-2-yloxy)phenyl)carbonohydrazonoyl dicyanide], in that order: 0%, 2120 nM and 111.4%.
On to `Cc1ccc(COc2ccc(NN=C(C#N)C#N)cn2)cc1` [Compound 99, (6-(4-methylbenzyloxy)pyridin-3-yl)carbonohydrazonoyl dicyanide], for which the remaining activity at 10 µM on tau protein (setting [1]) was 0%. The same molecule showed an IC50 against tau protein of 240 nM. Besides, the “Cell viability (% @10 μM)” value in the series with Tau-BiFC cells stood at 29.2%.
Take `Cc1ccc(NC(=O)c2ccc(NN=C(C#N)C#N)cc2)cn1` [Compound 47, (4-(6-methylpyridin-3-ylcarbamoyl)phenyl)carbonohydrazonoyl dicyanide]: on tau protein (setting [1]), the remaining activity at 10 µM turned out to be 0%. Besides, inhibition against tau protein was half-maximal at 2580 nM (IC50). Moreover, the “Cell viability (% @10 μM)” value in the series with Tau-BiFC cells was determined as 122.7%.
For the molecule `Cc1cnc(C(=O)Nc2ccc(NN=C(C#N)C#N)cc2F)cn1` [Compound 7, (3-fluoro-4-(5-methylpyrazine-2-carboxamido)phenyl)carbonohydrazonoyl dicyanide], the remaining activity at 10 µM at tau protein (setting [1]) came out at 0%. For the same molecule, the “Cell viability (% @10 μM)” value in the series with Tau-BiFC cells worked out at 30.6%.
`Cc1cncc(NC(=O)c2ccc(NN=C(C#N)C#N)cn2)c1` [Compound 39, (6-(5-methylpyridin-3-ylcarbamoyl)pyridin-3-yl)carbonohydrazonoyl dicyanide]: on tau protein (setting [1]), the remaining activity at 10 µM amounted to 0%. 630 nM corresponded to half-maximal inhibition against tau protein (IC50). For the same molecule, the “Cell viability (% @10 μM)” value in the series on Tau-BiFC cells stood at 131.1%.
For `N#CC(C#N)=NNc1ccc(Oc2cccc(C#N)c2)cc1` [Compound 88, (4-(3-cyanophenoxy)phenyl)carbonohydrazonoyl dicyanide], in that order: 0%, 3060 nM and 44.4%.
For `N#CC(C#N)=NNc1ccc(OCCc2ccc(C(F)(F)F)cc2)nc1` [Compound 103, (6-(4-(trifluoromethyl)phenethoxy)pyridin-3-yl)carbonohydrazonoyl dicyanide], in that order: 0%, 2350 nM and 37.9%.
Turning to `Cc1cnc(C(=O)Nc2ncc(NN=C(C#N)C#N)cc2C)cn1` [Compound 12, (5-methyl-6-(5-methylpyrazine-2-carboxamido)pyridin-3-yl)carbonohydrazonoyl dicyanide], on tau protein (setting [1]), the remaining activity at 10 µM was found to be 17.9%. Further, the half-maximal inhibitory concentration (IC50) on tau protein came to 640 nM. In addition, in the series with Tau-BiFC cells, the “Cell viability (% @10 μM)” value is reported as 122.1%.
For `CN(N=C(C#N)C#N)c1ccc(Oc2ccccc2)c(C(F)(F)F)c1` [Compound 78, methyl(4-phenoxy-3-(trifluoromethyl)phenyl)carbonohydrazonoyl dicyanide], at tau protein (setting [1]), the remaining activity at 10 µM is 69.6%. For the same molecule, the “Cell viability (% @10 μM)” value in the series with Tau-BiFC cells is given as 74%.
`Cc1cc(NN=C(C#N)C#N)ccc1NC(=O)c1cscn1` [Compound 111, (3-methyl-4-(thiazole-4-carboxamido)phenyl)carbonohydrazonoyl dicyanide]: the remaining activity at 10 µM on tau protein (setting [1]) stood at 0%. This molecule displayed an IC50 on tau protein of 500 nM. Further, the “Cell viability (% @10 μM)” value in the series with Tau-BiFC cells is given as 136.4%.
For `N#CC(C#N)=NNc1ccc(Oc2ccc(C(F)(F)F)nc2)cc1` [Compound 89, (4-(6-(trifluoromethyl)pyridin-3-yloxy)phenyl)carbonohydrazonoyl dicyanide], in that order: 0%, 2400 nM and 32.5%.
In the case of `Cc1ccc(NS(=O)(=O)c2ccc(NN=C(C#N)C#N)cc2)cn1` [Compound 65, (4-(N-(6-methylpyridin-3-yl)sulfamoyl)phenyl)carbonohydrazonoyl dicyanide], the remaining activity at 10 µM at tau protein (setting [1]) was 72.6%. Moreover, the “Cell viability (% @10 μM)” value in the series on Tau-BiFC cells is 111.4%.
As to `COc1cc(NN=C(C#N)C#N)ccc1C(=O)Nc1ccc(C)cc1` [Compound 108, (3-methoxy-4-(p-tolylcarbamoyl)phenyl)carbonohydrazonoyl Dicyanide], the remaining activity at 10 µM on tau protein (setting [1]) came out at 0%. The concentration for half-maximal inhibition (IC50) at tau protein is 1400 nM. The “Cell viability (% @10 μM)” value in the series with Tau-BiFC cells stood at 121.8%.
On to `COc1cc(NN=C(C#N)C#N)ccc1NC(=O)c1cnc(C)cn1` [Compound 10, (3-methoxy-4-(5-methylpyrazine-2-carboxamido)phenyl)carbonohydrazonoyl dicyanide], for which the remaining activity at 10 µM on tau protein (setting [1]) worked out at 0%. In addition, the “Cell viability (% @10 μM)” value in the series on Tau-BiFC cells came out at 21.7%.
For `COc1cc(C(=O)Nc2ccc(C)nc2)ccc1NN=C(C#N)C#N` [Compound 57, (2-methoxy-4-(6-methylpyridin-3-ylcarbamoyl)phenyl)carbonohydrazonoyl dicyanide], in that order: 51.7% and 108.6%.
As to `N#CC(C#N)=NNc1ccc(Oc2ccccn2)cc1` [Compound 83, (4-(pyridin-2-yloxy)phenyl)carbonohydrazonoyl dicyanide], the remaining activity at 10 µM at tau protein (setting [1]) amounted to 0%. This molecule also returned an IC50 against tau protein of 1140 nM. The “Cell viability (% @10 μM)” value in the series on Tau-BiFC cells is 104%.
For `COc1cc(NN=C(C#N)C#N)ccc1OCc1ncccn1` [Compound 161, (3-methoxy-4-(pyrimidin-2-ylmethoxy)phenyl)carbonohydrazonoyl dicyanide], at tau protein (48 h, compounds marked *: measured at 3 μM, Forskolin-only group = 100% tau protein-aggregated state, read-out: Response), the remaining activity at 3 µM is -17%. At tau protein, this molecule returned an IC50 of 109 nM. Further, the Cell viability with Tau-BiFC cells (compounds marked *: measured at 3 μM) came to 119%.
`N#CC(C#N)=NNc1ccc(OCCc2ccc(Cl)cc2)cc1` [Compound 123, (4-(4-chlorophenethoxy)phenyl)carbonohydrazonoyl dicyanide]: at tau protein (setting [1]), the remaining activity at 10 µM is 0%. This molecule also showed an IC50 against tau protein of 780 nM. Further, the “Cell viability (% @10 μM)” value in the series on Tau-BiFC cells is on record as 34.6%.
In the case of `N#CC(C#N)=NNc1ccc(NS(=O)(=O)c2ccc(F)cc2)nc1` [Compound 64, (6-(4-fluorophenylsulfonamido)pyridin-3-yl)carbonohydrazonoyl dicyanide], the remaining activity at 10 µM on tau protein (setting [1]) was 56%. For the same molecule, the “Cell viability (% @10 μM)” value with Tau-BiFC cells was 114.2%.
As for `N#CC(C#N)=NNc1ccc(NC(=O)c2ccccc2C(F)(F)F)nc1` [Compound 28, (6-(2-(trifluoromethyl)benzamido)pyridin-3-yl)carbonohydrazonoyl dicyanide], the remaining activity at 10 µM on tau protein (setting [1]) turned out to be 0%. The same molecule had an IC50 at tau protein of 540 nM. Besides, in the series on Tau-BiFC cells, the “Cell viability (% @10 μM)” value amounted to 125.8%.
With `COc1ccc(NC(=O)c2ccc(NN=C(C#N)C#N)cn2)cc1` [Compound 35, (6-(4-methoxyphenylcarbamoyl)pyridin-3-yl)carbonohydrazonoyl dicyanide], the remaining activity at 10 µM on tau protein (setting [1]) is 34.2%. Further, the “Cell viability (% @10 μM)” value with Tau-BiFC cells was 97.9%.
Turning to `N#CC(C#N)=NNc1ccc(OCc2cnccn2)cc1` [Compound 125, (4-(pyrazin-2-ylmethoxy)phenyl)carbonohydrazonoyl dicyanide], the remaining activity at 10 µM on tau protein (setting [1]) came out at 0%. At tau protein, this molecule came in with an IC50 of 2300 nM. The “Cell viability (% @10 μM)” value in the series with Tau-BiFC cells was 140.5%.
